Reference: patent US20250017891A1, “PHARMACEUTICAL COMPOSITION COMPRISING CABAZITAXEL PRODRUG-CYCLODEXTRIN INCLUSION COMPLEX, AND APPLICATIONS THEREOF” (TWI PHARMACEUTICALS, INC., priority 2023, published 2025)
Several values for one entry are separate records, joined by “and”; a condition that tells them apart may be missing. Equal values may be shown once. Read-outs that look alike come from different tables or passages of the source.

How the values were obtained:
[1] = Saturation test of CBT succinate-SBECD (1:2.2), solubility; type: physicochemical; conditions: aqueous buffer, thermodynamic from solid, excess complex dissolved by 20 mM pH 8.0 phosphate buffer, read-out: CBT succinate water solubility
Text: For the CBT succinate-SBECD (1:2.2), a saturation test was further carried out.

[2] = In vivo bioconversion of CBT succinate in 50% PEG300 formulation, IV, mouse plasma by LC-MS/MS; parameters: species or system ICR male mice; conditions: 15 mg/kg IV
Protocol: The bioanalysis results are tabulated as Tables 1 to 3 below. The values of mean and standard deviation (SD) are calculated. BLOQ means “below the limit of quantification”, and N/A means “not available”. Normal saline used herein is 0.90% sodium chloride aqueous solution.
C0: Initial concentration; • 3. […] AUC/D: AUC divided by dose; • 6.

[3] = Hydrolysis of CBT succinate dissolved in the aqueous preclinical formulation; type: physicochemical; conditions: 50% PEG300 in normal saline
[4] = even in the mixed solvent of water and organic reagent; cited from earlier work
[5] = analyte Cabazitaxel in mouse plasma, CBT succinate in 50% PEG300 formulation, time 24 h
[6] = male, ICR, mouse plasma, CBT succinate in 50% PEG300 formulation
[7] = mouse plasma, CBT succinate in 50% PEG300 formulation
[8] = mouse plasma, CBT succinate in 50% PEG300 formulation, time 4 h
[9] = mouse plasma, CBT succinate in 50% PEG300 formulation, time 8 h
[10] = mouse plasma, CBT succinate in 50% PEG300 formulation, time 24 h

SMILES: CO[C@H]1C(=O)[C@]2(C)[C@@H](OC)C[C@H]3OC[C@@]3(OC(C)=O)[C@H]2[C@H](OC(=O)c2ccccc2)[C@]2(O)C[C@H](OC(=O)[C@H](OC(=O)CCC(=O)O)[C@@H](NC(=O)OC(C)(C)C)c3ccccc3)C(C)=C1C2(C)C [CBT succinate, cabazitaxel succinate]
- solubility [1]: 120 µg/mL
- CBT concentration (individual mouse) ([2]; analyte Cabazitaxel in mouse plasma, CBT succinate in 50% PEG300 formulation, time 8 h, 15 mg/kg): BLOQ
- CBT concentration (individual mouse) [2, 5]: BLOQ
- CBT concentration, Mean [2, 5]: BLOQ
- concentration at 0.083 h ([2]; male, ICR, mouse, plasma, iv, 15 mg/kg, mouse plasma, CBT succinate in 50% PEG300 formulation, time 0.083 h, read-out: CBT succinate concentration (individual mouse)): 5980 ng/mL
- concentration at 0.083 h ([2]; male, ICR, mouse, plasma, iv, 15 mg/kg, mouse plasma, CBT succinate in 50% PEG300 formulation, time 0.083 h, read-out: CBT succinate concentration, Mean): 5750 ng/mL
- concentration at 0.167 h ([2]; male, ICR, mouse, plasma, iv, 15 mg/kg, mouse plasma, CBT succinate in 50% PEG300 formulation, time 0.167 h, read-out: CBT succinate concentration (individual mouse)): 3100 ng/mL
- concentration at 0.167 h ([2]; male, ICR, mouse, plasma, iv, 15 mg/kg, mouse plasma, CBT succinate in 50% PEG300 formulation, time 0.167 h, read-out: CBT succinate concentration, Mean): 3030 ng/mL
- concentration at 0.5 h ([2]; male, ICR, mouse, plasma, iv, 15 mg/kg, mouse plasma, CBT succinate in 50% PEG300 formulation, time 0.5 h): 386 ng/mL
- concentration at 1 h ([2]; male, ICR, mouse, plasma, iv, 15 mg/kg, mouse plasma, CBT succinate in 50% PEG300 formulation, time 1 h): 50 ng/mL
- concentration at 2 h ([2]; male, ICR, mouse, plasma, iv, 15 mg/kg, mouse plasma, CBT succinate in 50% PEG300 formulation, time 2 h, read-out: CBT succinate concentration (individual mouse)): 15 ng/mL
- concentration at 2 h ([2]; male, ICR, mouse, plasma, iv, 15 mg/kg, mouse plasma, CBT succinate in 50% PEG300 formulation, time 2 h, read-out: CBT succinate concentration, Mean): 15 ng/mL
- C0 [2, 6]: 10800 ng/mL
- MRT [2, 6]: 9.6 min
- AUC(0-inf) ([2]; male, ICR, mouse plasma, CBT succinate in 50% PEG300 formulation, read-out: AUCInf of CBT Succinate): 1770 ng·h/mL
- AUC(0-t) ([2]; male, ICR, mouse plasma, CBT succinate in 50% PEG300 formulation, read-out: AUClast of CBT Succinate): 1770 ng·h/mL
- clearance ([2]; male, ICR, mouse plasma, CBT succinate in 50% PEG300 formulation, read-out: CL of CBT Succinate): 141 mL/min/kg
- Vd ([2]; male, ICR, mouse plasma, CBT succinate in 50% PEG300 formulation, read-out: Vss of CBT Succinate): 1.38 L/kg
- half-life ([2]; male, ICR, mouse plasma, CBT succinate in 50% PEG300 formulation, read-out: t1/2 of CBT Succinate (converted)): 13.8 min
- bioconversion of CBT succinate to CBT ([2]; mice, 50% PEG300 formulation): very rapidly
- AUC Extr of CBT Succinate [2, 7]: 0.28%
- AUC/D of CBT Succinate [2, 7]: 118 kg·ng·h/mL/mg
- CBT succinate concentration (individual mouse) ([2]; mouse plasma, CBT succinate in 50% PEG300 formulation, time 0.083 h, 15 mg/kg): 5803 ng/mL and 5480 ng/mL
- CBT succinate concentration (individual mouse) ([2]; mouse plasma, CBT succinate in 50% PEG300 formulation, time 0.167 h, 15 mg/kg): 3144 ng/mL and 2857 ng/mL
- CBT succinate concentration (individual mouse) ([2]; mouse plasma, CBT succinate in 50% PEG300 formulation, time 0.5 h, 15 mg/kg): 541 ng/mL and 397 ng/mL and 221 ng/mL
- CBT succinate concentration (individual mouse) ([2]; mouse plasma, CBT succinate in 50% PEG300 formulation, time 1 h, 15 mg/kg): 25 ng/mL and 51 ng/mL and 73 ng/mL
- CBT succinate concentration (individual mouse) ([2]; mouse plasma, CBT succinate in 50% PEG300 formulation, time 2 h, 15 mg/kg): BLOQ
- CBT succinate concentration (individual mouse) [2, 8]: BLOQ
- CBT succinate concentration, Mean [2, 8]: BLOQ
- CBT succinate concentration (individual mouse) [2, 9]: BLOQ
- CBT succinate concentration, Mean [2, 9]: BLOQ
- CBT succinate concentration (individual mouse) [2, 10]: BLOQ
- CBT succinate concentration, Mean [2, 10]: BLOQ
- hydrolysis when dissolved in the aqueous preclinical formulation [3]: prone to hydrolysis

SMILES: CO[C@H]1C(=O)[C@]2(C)[C@@H](OC)C[C@H]3OC[C@@]3(OC(C)=O)[C@H]2[C@H](OC(=O)c2ccccc2)[C@]2(O)C[C@H](OC(=O)[C@H](O)[C@@H](NC(=O)OC(C)(C)C)c3ccccc3)C(C)=C1C2(C)C [cabazitaxel]
- solubility [4]: almost insoluble
